Results: patent US11034650B2, “Compounds useful for treating a Mannheimia haemolytica or Histophilus somni infection” (Intervet Inc., priority 2016, dated 2021)
In brackets after ≈: the same amount, converted by molar mass.

Tests used:
Type in all cases: cell-based
[1] = test system: Mannheimia haemolytica MH 6357 (M7/2, reference strain, cattle infection strain); experiment: MIC, broth-microdilution (CLSI VET01-A4), strain MH 6357; settings: Mannheimia haemolytica strain MH 6357, broth-microdilution; unit assumed
Outline: (§1)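 Compounds were serially diluted twofold in microdilution trays. Growth was judged by eye, and the MIC was the lowest concentration showing no turbidity. Results were interpreted per CLSI VET01-S3.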

[2] = test system: Mannheimia haemolytica MH 6374 (ATCC 33396, reference strain); experiment: MIC, broth-microdilution (CLSI VET01-A4), strain MH 6374; settings: Mannheimia haemolytica strain MH 6374, broth-microdilution; unit assumed
Outline: as §1

[3] = test system: Mannheimia haemolytica MH 10720 (154, BRD field isolate); experiment: MIC, broth-microdilution (CLSI VET01-A4), strain MH 10720; settings: Mannheimia haemolytica strain MH 10720, broth-microdilution; unit assumed
Outline: as §1

[4] = test system: Mannheimia haemolytica MH 12587 (1071, BRD field isolate, macrolide-resistance: erm+, E+); experiment: MIC, broth-microdilution (CLSI VET01-A4), strain MH 12587; settings: Mannheimia haemolytica strain MH 12587, broth-microdilution; unit assumed
Outline: as §1

[5] = test system: Mannheimia haemolytica MH 13065 (XB0446-6003.9, BRD field isolate); experiment: MIC, broth-microdilution (CLSI VET01-A4), strain MH 13065; settings: Mannheimia haemolytica strain MH 13065, broth-microdilution; unit assumed
Outline: as §1

[6] = test system: Mannheimia haemolytica MH 13093 (XB0472-6014.1, BRD field isolate); experiment: MIC, broth-microdilution (CLSI VET01-A4), strain MH 13093; settings: Mannheimia haemolytica strain MH 13093, broth-microdilution; unit assumed
Outline: as §1

[7] = test system: Pasteurella multocida PM 6267 (P 2225 (L386), reference strain, mouse infection strain); experiment: MIC, broth-microdilution (CLSI VET01-A4), strain PM 6267; settings: Pasteurella multocida strain PM 6267, broth-microdilution; unit assumed
Outline: as §1

[8] = test system: Pasteurella multocida PM 6391 (ATCC 43137, reference strain); experiment: MIC, broth-microdilution (CLSI VET01-A4), strain PM 6391; settings: Pasteurella multocida strain PM 6391, broth-microdilution; unit assumed
Procedure: For example, representative compounds were tested against ***, Mannheimia haemolytica and Pasteurella multocida, using the conventional broth-dilution assay.
The Minimum inhibitory concentrations (MIC) of compounds according to the invention for a number of veterinary bacterial pathogens were determined by the broth-microdilution method according to CLSI document VET01-A4.
Microdilution trays containing a doubling dilution series of the test compound were used for the tests. The MIC results were interpreted according to the CLSI documents VET01-S3. The lowest concentration of compound at which no visible growth (i.e. no turbidity) detected by the unaided eye was recorded as the MIC.

[9] = test system: Pasteurella multocida PM 10775 (080130003051, BRD field isolate); experiment: MIC, broth-microdilution (CLSI VET01-A4), strain PM 10775; settings: Pasteurella multocida strain PM 10775, broth-microdilution; unit assumed
Outline: as §1

[10] = test system: Pasteurella multocida PM 12080 (IV102277-0093, BRD field isolate); experiment: MIC, broth-microdilution (CLSI VET01-A4), strain PM 12080; settings: Pasteurella multocida strain PM 12080, broth-microdilution; unit assumed
Outline: as §1

Structure (SMILES)	MIC MH 6357 [1] [µg/mL]	MIC MH 6374 [2] [µg/mL]	MIC MH 10720 [3] [µg/mL]	MIC MH 12587 [4] [µg/mL]	MIC MH 13065 [5] [µg/mL]	MIC MH 13093 [6] [µg/mL]	MIC PM 6267 [7] [µg/mL]	MIC PM 6391 [8] [µg/mL]	MIC PM 10775 [9] [µg/mL]	MIC PM 12080 [10] [µg/mL]
CC[C@H](C)[C@H](NC(=O)c1ccc(C#Cc2cccc(CNC3CC3)c2)cc1)C(=O)NO [Compound 144]	6.3 (≈ 15 µM)	12.5 (≈ 29.8 µM)	1.6 (≈ 3.81 µM)	25 (≈ 59.6 µM)	12.5 (≈ 29.8 µM)	12.5 (≈ 29.8 µM)	3.1 (≈ 7.39 µM)	12.5 (≈ 29.8 µM)	0.4 (≈ 0.953 µM)	3.1 (≈ 7.39 µM)
O=C(N[C@@H](CO)C(=O)NO)c1ccc(C#Cc2ccc(CN3CCCC3)cc2)cc1 [Compound 145]	6.3 (≈ 15.5 µM)	25 (≈ 61.4 µM)	3.1 (≈ 7.61 µM)	25 (≈ 61.4 µM)	12.5 (≈ 30.7 µM)	12.5 (≈ 30.7 µM)	3.1 (≈ 7.61 µM)	6.3 (≈ 15.5 µM)	0.2 (≈ 0.491 µM)	6.3 (≈ 15.5 µM)
CN1CCN(Cc2ccc(C#Cc3ccc(C(=O)N[C@@H](CO)C(=O)NO)cc3)cc2)CC1 [Compound 146]	6.3 (≈ 14.4 µM)	25 (≈ 57.3 µM)	1.6 (≈ 3.67 µM)	25 (≈ 57.3 µM)	12.5 (≈ 28.6 µM)	25 (≈ 57.3 µM)	0.8 (≈ 1.83 µM)	1.6 (≈ 3.67 µM)	≤ 0.1	≤ 0.1
O=C(N[C@@H](CO)C(=O)NO)c1ccc(C#Cc2ccc(CNC3CCC3)cc2)cc1 [Compound 147]	3.1 (≈ 7.61 µM)	6.3 (≈ 15.5 µM)	3.1 (≈ 7.61 µM)	6.3 (≈ 15.5 µM)	6.3 (≈ 15.5 µM)	6.3 (≈ 15.5 µM)	0.4 (≈ 0.982 µM)	1.6 (≈ 3.93 µM)	≤ 0.1	1.6 (≈ 3.93 µM)
O=C(N[C@@H](CO)C(=O)NO)c1ccc(C#Cc2ccc(CNC3CCCC3)cc2)cc1 [Compound 148]	6.3 (≈ 14.9 µM)	25 (≈ 59.3 µM)	1.6 (≈ 3.8 µM)	25 (≈ 59.3 µM)	12.5 (≈ 29.7 µM)	12.5 (≈ 29.7 µM)	0.8 (≈ 1.9 µM)	1.6 (≈ 3.8 µM)	≤ 0.1	1.6 (≈ 3.8 µM)
O=C(N[C@@H](CO)C(=O)NO)c1ccc(C#Cc2ccc(CNC3CCCCC3)cc2)cc1 [Compound 149]	12.5 (≈ 28.7 µM)	25 (≈ 57.4 µM)	3.1 (≈ 7.12 µM)	25 (≈ 57.4 µM)	25 (≈ 57.4 µM)	25 (≈ 57.4 µM)	0.8 (≈ 1.84 µM)	1.6 (≈ 3.67 µM)	≤ 0.1	1.6 (≈ 3.67 µM)
CNCc1ccc(C#Cc2ccc(C(=O)N[C@@H](CO)C(=O)NO)cc2)cc1 [Compound 150]	6.3 (≈ 17.1 µM)	25 (≈ 68 µM)	3.1 (≈ 8.44 µM)	25 (≈ 68 µM)	12.5 (≈ 34 µM)	25 (≈ 68 µM)	6.3 (≈ 17.1 µM)	25 (≈ 68 µM)	≤ 0.1	≤ 0.1
CCNCc1ccc(C#Cc2ccc(C(=O)N[C@@H](CO)C(=O)NO)cc2)cc1 [Compound 151]	6.3 (≈ 16.5 µM)	25 (≈ 65.5 µM)	3.1 (≈ 8.13 µM)	25 (≈ 65.5 µM)	12.5 (≈ 32.8 µM)	25 (≈ 65.5 µM)	3.1 (≈ 8.13 µM)	12.5 (≈ 32.8 µM)	≤ 0.1	6.3 (≈ 16.5 µM)
CCCNCc1ccc(C#Cc2ccc(C(=O)N[C@@H](CO)C(=O)NO)cc2)cc1 [Compound 152]	3.1 (≈ 7.84 µM)	25 (≈ 63.2 µM)	3.1 (≈ 7.84 µM)	12.5 (≈ 31.6 µM)	12.5 (≈ 31.6 µM)	12.5 (≈ 31.6 µM)	1.6 (≈ 4.05 µM)	6.3 (≈ 15.9 µM)	0.2 (≈ 0.506 µM)	3.1 (≈ 7.84 µM)
COCCCNCc1ccc(C#Cc2ccc(C(=O)N[C@@H](CO)C(=O)NO)cc2)cc1 [Compound 153]	12.5 (≈ 29.4 µM)	25 (≈ 58.8 µM)	6.3 (≈ 14.8 µM)	25 (≈ 58.8 µM)	12.5 (≈ 29.4 µM)	25 (≈ 58.8 µM)	1.6 (≈ 3.76 µM)	6.3 (≈ 14.8 µM)	≤ 0.1	0.8 (≈ 1.88 µM)
COCCN(C)Cc1ccc(C#Cc2ccc(C(=O)N[C@@H](CO)C(=O)NO)cc2)cc1 [Compound 154]	3.1 (≈ 7.29 µM)	12.5 (≈ 29.4 µM)	1.6 (≈ 3.76 µM)	12.5 (≈ 29.4 µM)	6.3 (≈ 14.8 µM)	6.3 (≈ 14.8 µM)	0.2 (≈ 0.47 µM)	1.6 (≈ 3.76 µM)	≤ 0.1	0.8 (≈ 1.88 µM)
CC1CN(Cc2ccc(C#Cc3ccc(C(=O)N[C@@H](CO)C(=O)NO)cc3)cc2)CC(C)O1 (stereo partly drawn) [Compound 155]	12.5 (≈ 27.7 µM)	12.5 (≈ 27.7 µM)	1.6 (≈ 3.54 µM)	25 (≈ 55.4 µM)	12.5 (≈ 27.7 µM)	25 (≈ 55.4 µM)	≤ 0.1	0.4 (≈ 0.886 µM)	≤ 0.1	0.4 (≈ 0.886 µM)
O=C(N[C@@H](CO)C(=O)NO)c1ccc(C#Cc2ccc(CN3CCCCC3)cc2)cc1 [Compound 156]	6.3 (≈ 14.9 µM)	6.3 (≈ 14.9 µM)	1.6 (≈ 3.8 µM)	12.5 (≈ 29.7 µM)	12.5 (≈ 29.7 µM)	12.5 (≈ 29.7 µM)	0.8 (≈ 1.9 µM)	1.6 (≈ 3.8 µM)	≤ 0.1	1.6 (≈ 3.8 µM)
O=C(N[C@@H](CO)C(=O)NO)c1ccc(C#Cc2ccc(CNCc3cccnc3)cc2)cc1 [Compound 157]	1.6 (≈ 3.6 µM)	1.6 (≈ 3.6 µM)	0.8 (≈ 1.8 µM)	6.3 (≈ 14.2 µM)	3.1 (≈ 6.97 µM)	6.3 (≈ 14.2 µM)	0.4 (≈ 0.9 µM)	0.8 (≈ 1.8 µM)	≤ 0.1	0.8 (≈ 1.8 µM)
O=C(N[C@@H](CO)C(=O)NO)c1ccc(C#Cc2ccc(CNCc3ccccn3)cc2)cc1 [Compound 158]	1.6 (≈ 3.6 µM)	3.1 (≈ 6.97 µM)	0.8 (≈ 1.8 µM)	6.3 (≈ 14.2 µM)	6.3 (≈ 14.2 µM)	6.3 (≈ 14.2 µM)	0.4 (≈ 0.9 µM)	0.8 (≈ 1.8 µM)	≤ 0.1	0.8 (≈ 1.8 µM)
O=C(N[C@@H](CO)C(=O)NO)c1ccc(C#Cc2ccc(CNCc3ccco3)cc2)cc1 [Compound 159]	1.6 (≈ 3.69 µM)	1.6 (≈ 3.69 µM)	0.4 (≈ 0.923 µM)	3.1 (≈ 7.15 µM)	3.1 (≈ 7.15 µM)	3.1 (≈ 7.15 µM)	0.2 (≈ 0.461 µM)	0.8 (≈ 1.85 µM)	≤ 0.1	0.4 (≈ 0.923 µM)
O=C(N[C@@H](CO)C(=O)NO)c1ccc(C#Cc2ccc(CNCc3cccs3)cc2)cc1 [Compound 160]	0.8 (≈ 1.78 µM)	0.8 (≈ 1.78 µM)	0.4 (≈ 0.89 µM)	3.1 (≈ 6.9 µM)	1.6 (≈ 3.56 µM)	3.1 (≈ 6.9 µM)	≤ 0.1	0.4 (≈ 0.89 µM)	≤ 0.1	0.2 (≈ 0.445 µM)
Cc1ccc(CNCc2ccc(C#Cc3ccc(C(=O)N[C@@H](CO)C(=O)NO)cc3)cc2)cc1 [Compound 161]	1.6 (≈ 3.5 µM)	1.6 (≈ 3.5 µM)	0.8 (≈ 1.75 µM)	6.3 (≈ 13.8 µM)	3.1 (≈ 6.78 µM)	6.3 (≈ 13.8 µM)	0.2 (≈ 0.437 µM)	0.8 (≈ 1.75 µM)	≤ 0.1	0.2 (≈ 0.437 µM)
O=C(N[C@@H](CO)C(=O)NO)c1ccc(C#Cc2ccc(CNCC3CCCO3)cc2)cc1 (stereo partly drawn) [Compound 162]	6.3 (≈ 14.4 µM)	12.5 (≈ 28.6 µM)	3.1 (≈ 7.09 µM)	12.5 (≈ 28.6 µM)	12.5 (≈ 28.6 µM)	12.5 (≈ 28.6 µM)	0.8 (≈ 1.83 µM)	3.1 (≈ 7.09 µM)	≤ 0.1	1.6 (≈ 3.66 µM)
COCC(C)NCc1ccc(C#Cc2ccc(C(=O)N[C@@H](CO)C(=O)NO)cc2)cc1 (stereo partly drawn) [Compound 164]	6.3 (≈ 14.8 µM)	12.5 (≈ 29.4 µM)	1.6 (≈ 3.76 µM)	25 (≈ 58.8 µM)	12.5 (≈ 29.4 µM)	25 (≈ 58.8 µM)	0.4 (≈ 0.94 µM)	1.6 (≈ 3.76 µM)	≤ 0.1	1.6 (≈ 3.76 µM)
CC1CN(Cc2ccc(C#Cc3ccc(C(=O)N[C@H](C(=O)NO)C(C)C)cc3)cc2)CC(C)O1 (stereo partly drawn) [Compound 165]	6.3 (≈ 13.6 µM)	12.5 (≈ 27 µM)	3.1 (≈ 6.69 µM)	25 (≈ 53.9 µM)	12.5 (≈ 27 µM)	12.5 (≈ 27 µM)	≤ 0.1	0.2 (≈ 0.431 µM)	≤ 0.1	≤ 0.1
